Test results taken from PubChem BioAssay AID588414 (Sanford-Burnham Center for Chemical Genomics, 2011).
Activity calls are given as the source filed them.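 Rule for the calls: active = IC50 at or below 20 µM; inactive = the rest.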

These compounds were tested against Glucose-6-phosphate 1-dehydrogenase (Homo sapiens) (UniProt P11413) (assay: inhibition of human G6PD activity – biochemical, fluorescence, dose response, selectivity assay for P. falciparum G6PD inhibitor project, SAR follow-up (AID 588414)). Settings: NADPH-diaphorase-resazurin fluorescence.
Chain of Glucose-6-phosphate 1-dehydrogenase (Homo sapiens) (P11413 whole entry, looked up): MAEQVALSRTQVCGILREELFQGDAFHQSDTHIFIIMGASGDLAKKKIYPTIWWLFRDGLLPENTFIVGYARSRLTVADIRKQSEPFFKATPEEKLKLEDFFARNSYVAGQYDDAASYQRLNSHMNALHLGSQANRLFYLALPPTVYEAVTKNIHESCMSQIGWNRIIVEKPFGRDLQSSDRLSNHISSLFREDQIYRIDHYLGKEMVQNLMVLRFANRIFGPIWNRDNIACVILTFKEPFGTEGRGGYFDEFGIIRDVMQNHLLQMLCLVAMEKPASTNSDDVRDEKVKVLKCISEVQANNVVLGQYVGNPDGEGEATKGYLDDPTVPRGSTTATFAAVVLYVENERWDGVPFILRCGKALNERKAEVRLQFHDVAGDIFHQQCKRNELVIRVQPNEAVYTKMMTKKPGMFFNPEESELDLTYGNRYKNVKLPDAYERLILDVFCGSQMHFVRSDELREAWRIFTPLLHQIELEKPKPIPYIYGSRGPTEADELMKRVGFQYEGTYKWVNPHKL

Row | IC50 | SMILES
1 | > 80 µM (inactive) | CC1Cc2ccccc2N1S(=O)(=O)c1nnc(NC(=O)c2cccc(F)c2)s1 (stereo not drawn)
2 | > 80 µM (inactive) | CCC(C)N(CCNC(=O)c1ccc2c(c1)NC(=O)c1ccccc1S2)C1CCCCC1 (stereo not drawn)
3 | > 80 µM (inactive) | CCCN(CCC)CCNC(=O)c1ccc2c(c1)NC(=O)/C(=C/c1ccccc1)S2
4 | > 80 µM (inactive) | COc1ccc(/C=C2/Sc3ccc(C(=O)NCCN(C)C)cc3NC2=O)cc1
5 | > 80 µM (inactive) | O=C(Nc1nnc(S(=O)(=O)N2CCCCCC2)s1)c1cccc(Br)c1
6 | > 80 µM (inactive) | O=C1Nc2cc(C(=O)NCCN3CCCC3)ccc2S/C1=C/c1ccccc1Cl
7 | > 80 µM (inactive) | CCN(CC)CCNC(=O)c1ccc2c(c1)N(Cc1cc(C)ccc1C)C(=O)c1ccccc1S2
8 | > 80 µM (inactive) | CCN(CC)CCNC(=O)c1ccc2c(c1)NC(=O)/C(=C\c1ccccc1F)S2
9 | > 80 µM (inactive) | CCN1CCCC1CNC(=O)c1ccc2c(c1)NC(=O)c1ccccc1S2 (stereo not drawn)
10 | > 80 µM (inactive) | Cc1cccc(C(=O)Nc2nnc(S(=O)(=O)N3CCCc4ccccc43)s2)c1
11 | > 80 µM (inactive) | Cc1cccc(C(=O)Nc2nnc(S(=O)(=O)N3CCC(C)CC3)s2)c1
12 | > 80 µM (inactive) | COc1ccccc1C(=O)Nc1nnc(S(=O)(=O)N2CCCCCC2)s1
13 | > 80 µM (inactive) | CCN(CCNC(=O)c1ccc2c(c1)N(Cc1cc(C)ccc1C)C(=O)c1ccccc1S2)c1ccccc1
14 | > 80 µM (inactive) | CN(C)CCNC(=O)c1ccc2c(c1)NC(=O)/C(=C\c1ccccc1F)S2
15 | > 80 µM (inactive) | CCN(CC)CCNC(=O)c1ccc2c(c1)N(Cc1ccccc1Cl)C(=O)c1ccccc1S2
16 | > 80 µM (inactive) | COc1cccc(/C=C2/Sc3ccc(C(=O)NCCN4CCCC4)cc3NC2=O)c1
17 | > 80 µM (inactive) | CCN(CC)CCNC(=O)c1ccc2c(c1)N(Cc1ccc(C)cc1)C(=O)c1ccccc1S2
18 | > 80 µM (inactive) | CCN1CCCC1CNC(=O)c1ccc2c(c1)N(Cc1ccccc1Cl)C(=O)c1ccccc1S2 (stereo not drawn)
19 | > 80 µM (inactive) | O=C(Nc1nnc(S(=O)(=O)N2CCCCCC2)s1)c1cccc(Cl)c1
20 | > 80 µM (inactive) | CCN(CCNC(=O)c1ccc2c(c1)NC(=O)c1ccccc1S2)c1ccccc1
21 | > 80 µM (inactive) | CCN1CCCC1CNC(=O)c1ccc2c(c1)N(Cc1ccccc1F)C(=O)c1ccccc1S2 (stereo not drawn)
22 | > 80 µM (inactive) | CCN1CCCC1CNC(=O)c1ccc2c(c1)NC(=O)/C(=C/c1ccccc1F)S2 (stereo not drawn)
23 | > 80 µM (inactive) | COc1ccc(/C=C2/Sc3ccc(C(=O)NCCN4CCCCCC4)cc3NC2=O)cc1

Row | IC50 | SMILES
24 | > 80 µM (inactive) | CCN1CCCC1CNC(=O)c1ccc2c(c1)N(Cc1ccc(C(F)(F)F)cc1)C(=O)c1ccccc1S2 (stereo not drawn)
25 | > 80 µM (inactive) | O=C(Nc1nnc(S(=O)(=O)N2CCCCCC2)s1)c1cccc(F)c1
26 | > 80 µM (inactive) | O=C(Nc1nnc(S(=O)(=O)N2CCCCCC2)s1)C1CCCCC1
27 | > 80 µM (inactive) | CCN(CC)CCNC(=O)c1ccc2c(c1)NC(=O)/C(=C/c1ccccc1)S2
28 | > 80 µM (inactive) | CCN1CCCC1CNC(=O)c1ccc2c(c1)NC(=O)/C(=C\c1ccccc1F)S2 (stereo not drawn)
29 | > 80 µM (inactive) | Cc1cccc(C(=O)Nc2nnc(S(=O)(=O)N3CCOCC3)s2)c1
30 | > 80 µM (inactive) | Cc1cccc(N2CCN(CCNC(=O)c3ccc4c(c3)NC(=O)c3ccccc3S4)CC2)c1C
31 | > 80 µM (inactive) | CCN(CC)CCNC(=O)c1ccc2c(c1)NC(=O)/C(=C\c1ccc(OC)c(OC)c1)S2
32 | > 80 µM (inactive) | COc1cccc(C(=O)Nc2nnc(S(=O)(=O)N3CCCCCC3)s2)c1
33 | > 80 µM (inactive) | Cc1cccc(C(=O)Nc2nnc(S(=O)(=O)N3CCCCCC3)s2)c1
34 | > 80 µM (inactive) | CN(CCNC(=O)c1ccc2c(c1)NC(=O)c1ccccc1S2)C1CCCCC1
35 | > 80 µM (inactive) | CCN(CC)CCNC(=O)c1ccc2c(c1)NC(=O)c1ccccc1S2
36 | > 80 µM (inactive) | O=C(Nc1nnc(S(=O)(=O)N2CCCCCC2)s1)c1ccccc1
37 | > 80 µM (inactive) | O=C(Nc1nnc(S(=O)(=O)N2CCCc3ccccc32)s1)c1cccc(F)c1
38 | > 80 µM (inactive) | CCCN(CCC)CCNC(=O)c1ccc2c(c1)NC(=O)/C(=C\c1ccc(C)cc1)S2
39 | > 80 µM (inactive) | O=C(Nc1nnc(S(=O)(=O)N2CCCCCC2)s1)c1ccc(F)cc1
40 | > 80 µM (inactive) | Cc1ccccc1C(=O)Nc1nnc(S(=O)(=O)N2CCCc3ccccc32)s1
41 | > 80 µM (inactive) | CCN(CCNC(=O)c1ccc2c(c1)N(CC)C(=O)c1ccccc1S2)c1ccccc1
42 | > 80 µM (inactive) | CCN(CC)CCNC(=O)c1ccc2c(c1)NC(=O)/C(=C\c1ccc(OC)cc1)S2
43 | > 80 µM (inactive) | CCOc1ccc(C(=O)Nc2nnc(S(=O)(=O)N3CCCCCC3)s2)cc1
44 | > 80 µM (inactive) | Cc1cccc(/C=C2/Sc3ccc(C(=O)NCCN4CCCC4)cc3NC2=O)c1
45 | > 80 µM (inactive) | O=C(Nc1nnc(S(=O)(=O)N2CCOCC2)s1)c1cccc(F)c1
46 | > 80 µM (inactive) | COc1cccc(/C=C2/Sc3ccc(C(=O)NCCN4CCCCCC4)cc3NC2=O)c1

Row | IC50 | SMILES
47 | > 80 µM (inactive) | Cc1ccc(CN2C(=O)c3ccccc3Sc3ccc(C(=O)NCCN(C)C)cc32)cc1
48 | > 80 µM (inactive) | CCN(CC)CCNC(=O)c1ccc2c(c1)NC(=O)/C(=C\c1cccc(C)c1)S2
49 | > 80 µM (inactive) | CCN1CCCC1CNC(=O)c1ccc2c(c1)NC(=O)/C(=C\c1ccc(C)cc1)S2 (stereo not drawn)
50 | > 80 µM (inactive) | O=C(Nc1nnc(S(=O)(=O)N2CCCCCC2)s1)c1ccco1
51 | > 80 µM (inactive) | CCN1CCCC1CNC(=O)c1ccc2c(c1)NC(=O)/C(=C\c1ccccc1Cl)S2 (stereo not drawn)
52 | > 80 µM (inactive) | COc1ccc(/C=C2/Sc3ccc(C(=O)NCCN4CCCC4)cc3NC2=O)cc1
53 | > 80 µM (inactive) | Cc1ccc(C(=O)Nc2nnc(S(=O)(=O)N3CCCc4ccccc43)s2)cc1
54 | > 80 µM (inactive) | O=C(Nc1nnc(S(=O)(=O)N2CCCCCC2)s1)c1ccccc1F
55 | > 80 µM (inactive) | Cc1ccc(C(=O)Nc2nnc(S(=O)(=O)N3c4ccccc4CC3C)s2)cc1 (stereo not drawn)
56 | > 80 µM (inactive) | O=C1Nc2cc(C(=O)NCCN3CCCCCC3)ccc2S/C1=C/c1ccccc1F
57 | > 80 µM (inactive) | O=C1Nc2cc(C(=O)NCCN3CCCC3)ccc2S/C1=C/c1ccccc1F
58 | > 80 µM (inactive) | COc1ccc(C(=O)Nc2nnc(S(=O)(=O)N3CCCCCC3)s2)cc1
59 | > 80 µM (inactive) | O=C1Nc2cc(C(=O)NCCN3CCCCCC3)ccc2S/C1=C/c1ccccc1Cl
60 | > 80 µM (inactive) | CCN(CC)CCNC(=O)c1ccc2c(c1)NC(=O)/C(=C\c1ccccc1Cl)S2
61 | > 80 µM (inactive) | CN(C)CCNC(=O)c1ccc2c(c1)NC(=O)/C(=C\c1cccc(Cl)c1)S2
62 | > 80 µM (inactive) | O=C(Nc1nnc(S(=O)(=O)N2CCCCC2)s1)c1cccc(F)c1
63 | > 80 µM (inactive) | CCN1CCCC1CNC(=O)c1ccc2c(c1)N(Cc1cccc(F)c1)C(=O)c1ccccc1S2 (stereo not drawn)
64 | > 80 µM (inactive) | COc1ccc(C(=O)Nc2nnc(S(=O)(=O)N3CCCCCC3)s2)cc1OC
65 | > 80 µM (inactive) | CC1Cc2ccccc2N1S(=O)(=O)c1nnc(NC(=O)c2cccc(Br)c2)s1 (stereo not drawn)
66 | > 80 µM (inactive) | Cc1cccc(C(=O)Nc2nnc(S(=O)(=O)N3c4ccccc4CC3C)s2)c1 (stereo not drawn)
67 | > 80 µM (inactive) | Cc1ccccc1C(=O)Nc1nnc(S(=O)(=O)N2CCCCCC2)s1
68 | > 80 µM (inactive) | Cc1ccc(C(=O)Nc2nnc(S(=O)(=O)N3CCCCCC3)s2)cc1
